# Reference: patent US20170015979A1 (Instituto Tecnológico y de Estudios Superiores de Monterrey, priority 2015, published 2017)
# Where “and” joins values, the source holds several entries; their conditions need not be identical. Identical values can stand only once. Like-named read-outs stand apart in the source and are kept apart here.
# Legend:
# [1] = tested on: Jalapeño hypocotyl, epicotyl and shoot tip tissues; test: Sensitivity of Jalapeño explants; type: cell-based; settings: 200 μg/mL; initially evaluated after 15 days
# [2] = tested on: N. benthamiana leaf explants; test: Killing curve for tobacco leaf explants; type: cell-based; settings: for explants exhibiting necrosis: 200 μg/mL, after 7 days, MS solid medium; for shoot induction observed (share of plates): after 30 days
# Source text: FIG. 6. Doxycycline killing curve for N. benthamiana leaf explants.
# Kluyveromyces marxianus = test: Yeast sensitivity on YPGE agar; type: cell-based
# Experimental: (§1) Example 4. […] From a single overnight grown colony of each yeast strain, 25 mL of yeast extract-peptone-dextrose (YPD) broth were inoculated and grown for 16 hours at 30° C. and 150 rpm.
# [3] = tested on: Saccharomyces cerevisiae ATCC 44774; test: Yeast sensitivity on YPGE agar; type: cell-based
# Experimental: as §1
# Kluyvermyces lactis = test: Yeast sensitivity on YPGE agar; type: cell-based
# Experimental: as §1
# Pichia pastoris = test: Yeast sensitivity on YPGE agar; type: cell-based; settings: 10^6 cells plated
# Experimental: as §1
# [4] = tested on: C. reinhardtii strain CC-849
# Experimental: Glass bead transformation C. reinhardtii strain CC-849 was transformed with supercoiled plasmid DNA of Atetx, Btetx, pKS-aphVIII or pSP124S (Table 4) by the glass bead method. Briefly, the algae were grown at 25° C. with a 18/6 (light/dark) photoperiod in TAP media to mid-log phase (1-2×10^6 cells/mL), the cells were harvested by centrifugation 5 min. at 5000 g, the growth medium was removed and fresh TAP was added to achieve a cell concentration of 2×10^8 cells/mL. 300 μL of the cell suspension were placed in a 1.5 mL centrifuge tube containing 0.3 g of sterile 0.4-0.6 mm diameter glass beads (Sigma, St. Louis, Mo.) and 1×10^−12 mols of the desired plasmid DNA. The cell/DNA/glass bead suspensions were vortexed 15 s at maximum power in a VWR mini vortex. The cells were transferred to a glass tube with 5 mL of fresh TAP media and incubated at 25° C. overnight with a 8/6 (light/dark) photoperiod. After 14 hours the cells were concentrated by centrifugation at 5,000 g for 15 minutes and resuspended in TAP media to yield either 3×10^7 cells/mL of pKS-aphVIII and pSP124S transformants and 2.5×10^6, 5×10^6, 1×10^7 or 3×10^7 cells/mL for tetx transformants. […] When colonies appeared, they were streaked on to selective TAP agar plates.
# C. reinhardtii strain CC-849 was transformed with supercoiled plasmid DNA of AtetX and BtetX, by the glass bead method. […]
# [5] = 10^5 cells plated, 2 days of incubation
Compound,explants exhibiting necrosis [1] [%],explants exhibiting necrosis [2] [%],concentration at which growth was inhibited (Kluyveromyces marxianus; 10^6 cells plated),concentration at which growth was inhibited (Kluyveromyces marxianus; 10^7 cells plated) [µg/mL],concentration at which growth was inhibited ([3]; 10^5 cells plated) [µg/mL],concentration at which growth was inhibited ([3]; 10^7 cells plated) [µg/mL],concentration at which growth was inhibited (Kluyvermyces lactis; 10^6 cells plated),concentration at which growth was inhibited (Kluyvermyces lactis; 10^7 cells plated) [µg/mL],concentration at which growth was inhibited (Pichia pastoris) [µg/mL],shoot induction observed (share of plates) ([2]; 15 μg/mL) [%],shoot induction observed (share of plates) ([2]; 25 μg/mL) [%],decrease of number of positive colonies compared to 15 μg/mL ([4]; tetracycline 25 μg/mL for selection of primary transformants),decrease of number of positive colonies compared to 15 μg/mL ([4]; tetracycline 50 μg/mL for selection of primary transformants),concentration at which growth was inhibited (Kluyveromyces marxianus; [5]) [µg/mL],"concentration at which growth was inhibited ([3]; 2 days of incubation, cell number not clearly stated)",concentration at which growth was inhibited (Kluyvermyces lactis; [5])
C[C@H]1c2cccc(O)c2C(=O)C2=C(O)[C@]3(O)C(=O)C(C(N)=O)=C(O)[C@@H](N(C)C)[C@@H]3[C@@H](O)[C@@H]21 [doxycycline],100,100,675 µg/mL and 1000 µg/mL,1000,1000,1000,675 µg/mL and 1000 µg/mL,1000,1000,–,–,–,–,–,–,–
"CN(C)[C@@H]1C(O)=C(C(N)=O)C(=O)[C@@]2(O)C(O)=C3C(=O)c4c(O)cccc4[C@@](C)(O)[C@H]3C[C@@H]12 [tetracycline, Tetracycline]",100,100,1000 µg/mL,–,–,–,–,–,–,50,50,approximately 75%,approximately 75%,350 to 1000,500 µg/mL and 750 µg/mL and 1000 µg/mL,750 µg/mL and 1000 µg/mL
